Assay results: patent US4603139A, “Bicycle compounds, processes for their preparation and pharmaceutical formulations containing compounds” (Burroughs Wellcome Co., priority 1981, dated 1986)
≈ marks a conversion by molar mass, not a printed value. Counter-ions that a name gives are not always drawn. One block for each compound: values may come before it.

Assays:
[1] = system: right ventricular papillary muscle; experiment: in vitro inotropic activity (isolated right ventricular papillary muscle); type: cell-based, guinea-pig; conditions: 75% increase in basal contractile force (Fc), carazolol 5×10^-8 M present, 34° C., cumulative additions; for EC75: Cavia porcellus, read-out: Potency for 75% increase Fc lying within the range
Description: The heart was rapidly excised and washed with Krebs-Henesleit solution containing the β-adrenoceptor antagonist carazolol (5×10^-8 M) and gassed with 95% O2 : 5% CO2 at 34° C. The heat was transferred to a petri dish containing the same buffer kept at a constant temperature (34° C.) throughout the dissection. Fresh buffer was used for each dissection and washings were discarded after use. A single right ventricular papillary muscle was employed from each heart; the tendinous end ligated to a stainless steel hook and the lower end ligated and cut away from the ventricle wall and attached to a perspex clamp such that the tissue was in contact with a platimum punctate electrode. The stainless steel hook was suspended from a Grass FT.03 transducer which recorded isometric tension. The preparation was placed in a 20 ml pyrex organ bath containing buffer gassed with 95% O2 : 5% CO2 and maintained at 34° C. 500 mg loading tension was applied to the preparation. Stimulation was effected by rectangular pulses of Imsec duration at 1.5 Hz at 30% above the threshold voltage (1-5 volts) by a SRI stimulator. The transducer inputs were coupled to a potentiometric recording device by a 6-channel Grass transducer coupler. After 90 minutes, preparations unable to sustain uniform contractions beyond this period were rejected.

[2] = system: anaesthetised, open-chest beagles; experiment: in vivo inotropic and vasodilatory activity; conditions: Canis lupus familiaris, bolus intravenous, 0.003-3.0 mg/kg; for ED50: increase in dp/dt of left ventricular pressure; for ED30: vasodilatory activity
Description: The compounds of Examples 1,2 and 21 were tested in comparison with amrinone and […]. […] This is accompanied by a dose-related increase in aortic blood flow, and a fall in systemic blood pressure (see Table below).

phosphodiesterase = phosphodiesterase inhibitory activity; type: biochemical; conditions: 100 μM, 1 mM and 10 mM; 3H-cAMP 5 uM; guinea pig heart homogenate; 37° C., 30 minutes
Description: The determination of phosphodiesterase inhibitory activity was effected by a procedure based on that of Thompson and Appleman (Biochme., 10, 311 (1971)). ^3 H-cAMP (5 uM) is incubated at 37° C. for 30 minutes with the 1000Xg supernatent of a 10% (w/v) homogenate of guinea pig heart in 50 mM-Tris/HCL pH7+5 mM-mgCI2 in either the presence or the absence of the compound of Example 21 which, in the former case, is dissolved in Tris buffer to give final concentrations of 100 uM, 1 mM and 10 mM. Phosphodiesterase enzyme in the homogenate hydrolyses ^3 H-cAMP to ^3 H-5'-AMP which is further converted to ^3 H-adenosine by a 5'-nucleotidase added to the incubation mixture. After a period of incubation unchanged ^3 H-cAMP is removed by adding ion exchange resin to the mixture and centrifuging. The ^3 H in the supernatent is assayed by liquid scintillation counting and gives a quantitative measure of adenosine formation (i.e. cAMP hydrolysis). Comparison of the ^3 H-adenosine formed in the presence and absence of test compound gives a measure of the PDE-inhibitory activity of the compound.

[3] = system: ADP-induced platelet aggregation; experiment: ex vivo inhibition of platelet aggregation; type: in vivo; conditions: Macaca mulatta, iv, anaesthetised rhesus monkey, read-out: effective dose causing 50% inhibition of aggregation
Description: Rhesus monkeys of both sexes (7.3-9 kg, body weight) were sedated with phencyclidine, subsequently anaesthetised with thiopentone and maintained with sodium pentobarbitone. Catheters were placed in the left femoral artery to record blood pressure and in the left femoral vein for administration of drugs. A further catheter was placed in the contralateral femoral artery for the removal of blood samples. Heart rate was recorded from ECG (standard lead II). A left ventricular catheter was introduced via the left carotid artery to measure left ventricular pressure. […] Rectal temperature of the anaesthetised monkey was maintained at 37°-38° C. via a heated table-pad.
Blood samples (3 ml) were withdrawn into syringes containing trisodium citrate (0.315% w/v final concentration), and spun for […]. The platelet rich-plasma was transferred to a Born-type aggregometer and incubated for 1 min (at 37° C.) prior to the addition of sufficient ADP to induce sub-maximal (1.5-3 μM) or near maximal (8-12 μM) aggregation. Inhibition of aggregation was calculated with reference to at least 2 control samples prior to intravenous infusion of compound A. The sequence of administration of compound A was randomized between experiments. The effective dose of compound A which caused 50% inhibition of aggregation is 1.0 mg/kg i.v. (approximately).

[4] = system: ADP-induced platelet aggregation; experiment: in vitro inhibition of platelet aggregation; type: cell-based, rhesus monkey; conditions: Macaca mulatta, 1 min, platelet-rich plasma, 37° C., read-out: ID50 (dose causing 50% inhibition of platelet aggregation)
Description: Blood was freshly collected into siliconized (Siloclad; Clay Adams) plastic (Sterlin Ltd.) tubes containing trisodium citrate (3.15%; 0.1 volume with 0.9 volume blood) and centrifuged (200 g for 15 min) at room temperature. The platelet-rich plasma (PRP) was withdrawn into plastic containers and kept at room temperature. Inhibition of platelet aggregation was determined in a Born-type aggregometer by incubating aliquots (0.5 ml) of the PRP for 1 min at 37° C. with or without compound A prior to addition of sufficient adenosine diphosphate (ADP). Dose-inhibition curves were constructed for each compound and the ID50 (dose causing 50% inhibition) was calculated as the dose required to reduce the aggregation to 50% of its control amplitude. The ID50 for compound A is 1 mg/ml (approximately).

myocardial injury = myocardial injury following selective ligation of the coronary artery in vivo
ischaemic heart = experiment: ventricular vulnerability to arrythmias in the ischaemic heart; type: in vivo
[5] = system: myocardial β-adrenoceptors; conditions: Brutsaert et al 1982; Pouleur et al 1982; cited from earlier work
[6] = system: myocardial phosphodiesterase; conditions: Diederan and Wiesenberger, 1981; cited from earlier work

Compound: COc1ccc(-c2nc3cnccc3n2C)c(OC)c1 [Example 41, 1-Methyl-2-(2,4-dimethoxyphenyl)-1H-imidazo[4,5-c]pyridine]
EC75 [1]: > 1000 µM

Compound: COc1ccc(-c2nc3cnccc3[nH]2)cc1OC [Example 8, 2-(3,4-dimethoxyphenyl)-1H-imidazo[4,5-c]pyridine dihydrochloride]
EC75 [1]: 10 to 100 µM

Compound: COc1ccccc1-c1nc2cnccc2[nH]1 [Example 7, 2-(2-methoxyphenyl)-1H-imidazo[4,5-c]pyridine hydrochloride]
EC75 [1]: 100 to 1000 µM

Compound: COc1ccc(-c2nc3cnccc3[nH]2)c(OC)c1 [Example 1, 2-(2,4-Dimethoxyphenyl)-1H-imidazo[4,5-c]pyridine]
EC75 [1]: 100 to 1000 µM | ED50 [2]: 0.13 mg/kg | ED30 [2]: 0.24 mg/kg

Compound: COc1cc(Cl)ccc1-c1nc2cnccc2[nH]1 [Example 10, 2-(2-methoxy-4-chlorophenyl)-1H-imidazo[4,5-c]pyridine hydrochloride]
EC75 [1]: 10 to 100 µM

Compound: COc1cc([S+](C)[O-])ccc1-c1nc2cnccc2[nH]1.Cl (stereo not drawn) [Example 23, 2-(2-Methoxy-4-methylsulphinylphenyl)-1H-imidazo[4,5-c]pyridine hydrochloride]
Potency for 75% increase Fc lying within the range [1]: 10^-4 -10^-3 M

Compound: COc1ccc(-c2nc3cnccc3[nH]2)c([S+](C)[O-])c1 (stereo not drawn) [Example 22, 2-(2-Methylsulphinyl-4-methoxyphenyl)-1H-imidazo[4,5-c]pyridine hydrochloride]
EC75 [1]: > 1000 µM

Compound: 2-(2-methylsulphinyl)-1H-imidazo[4,5-c]pyridine hydrochloride [Example 50]
Potency for 75% increase Fc lying within the range [1]: > 10^-3 M

Compound: COc1ccc(-c2nc3cnccc3[nH]2)cc1SC [Example 34, 2-(3-Methylthio-4-methoxyphenyl)-1H-imidazo-[4,5-c]pyridine dihydrochloride]
EC75 [1]: 100 to 1000 µM

Compound: COc1ccc(-c2nc3cnccc3[nH]2)cc1[S+](C)[O-] (stereo not drawn) [Example 35, 2-(3-Methylsulphinyl-4-methoxyphenyl)-1H-imidazo[4,5-c]pyridine]
EC75 [1]: > 1000 µM

Compound: COc1ccc(-c2nc3c[n+]([O-])ccc3[nH]2)c(OC)c1 [Example 38, 2-(2,4-Dimethoxyphenyl)-1H-imidazo[4,5-c]pyridineN^5-oxide hydrate]
EC75 [1]: > 1000 µM

PDE inhibitory activity (phosphodiesterase): no PDE inhibitory activity | IC50 [4]: ~1000 µg/mL (≈ 3.48 mM)
Compound: COc1cc([S+](C)[O-])ccc1-c1nc2cnccc2[nH]1 (stereo not drawn) [Example 21, 2-(2-Methoxy-4-methylsulphinylphenyl)-1H-imidazo[4,5-c]pyridine]
EC75 [1]: 100 to 1000 µM | ED50 [2]: 0.063 mg/kg | ED30 [2]: 0.19 mg/kg | ED50 [3]: ~1 mg/kg | effect on myocardial injury (myocardial injury): does not exacerbate myocardial injury | effect on ventricular vulnerability to arrythmias (ischaemic heart): does not increase ventricular vulnerability to arrythmias

Compound: Nc1cc(-c2ccncc2)c[nH]c1=O [Amrinone, reference compound]
ED50 [2]: 1 mg/kg | ED30 [2]: 2 mg/kg

Compound: COc1cc(-c2nc3cnccc3[nH]2)cc(OC)c1OC [Example 3, 2-(3,4,5-trimethoxyphenyl)-1H-imidazo[4,5-c]pyridine dihydrochloride]
EC75 [1]: > 1000 µM

Compound: CSc1ccccc1-c1nc2cnccc2[nH]1 [Example 29, 2-(2-methylthiophenyl)-1H-imidazo[4,5-c]pyridine hydrochloride]
EC75 [1]: 100 to 1000 µM

Compound: COc1cc([S+](C)[O-])ccc1-c1nc2ncccc2[nH]1 (stereo not drawn) [Vardax, 2-[(2-methoxy-4-methylsulphinyl)phenyl]-1H-imidazo[4,5-b]pyridine, reference compound]
ED50 [2]: 1 mg/kg | ED30 [2]: 2.11 mg/kg | contribution of myocardial β-adrenoceptor stimulation to positive inotropic stimulation [5]: at least part of the positive inotropic stimulation | inhibition of myocardial phosphodiesterase [6]: effective inhibitor of myocardial phosphodiesterase

Compound: COc1ccc(-c2nc3ccncc3n2C)c(OC)c1 [Example 40, 3-Methyl-2-(2,4-dimethoxyphenyl)-1H-imidazo[4,5-c]pyridine]
EC75 [1]: > 1000 µM

Compound: COc1ccc(-c2nc3cnccc3[nH]2)cc1.Cl.Cl [Example 2, 2-(4-Methoxyphenyl)-1H-imidazo[4,5-c]pyridine dihydrochloride]
ED50 [2]: 2 mg/kg | ED30 [2]: 5.1 mg/kg

Compound: COc1cc(S(C)(=O)=O)ccc1-c1nc2cnccc2[nH]1 [Example 32, 2-(2-Methoxy-4-methylsulphonylphenyl)-1H-imidazo[4,5-c]pyridine]
EC75 [1]: 100 to 1000 µM
